Results as given in patent US20180110754A1, “CENICRIVIROC FOR THE TREATMENT OF FIBROSIS” (Tobira Therapeutics, Inc., priority 2015, published 2018).

Assay: Study 202: fasting metabolic laboratory parameters
Assay type: in vivo
From the text: All abnormalities in total cholesterol, LDL cholesterol, triglycerides, or glucose were Grade 1 or Grade 2.
Mean baseline values and changes from baseline in HbA1c, HOMA-IR, fasting LDL, fasting HDL, fasting total cholesterol, fasting total cholesterol/HDL ratio, and fasting triglycerides are shown in Table 36.

[1] = CVC 200 mg (N = 57), through Week 48

CCCCOCCOc1ccc(-c2ccc3c(c2)/C=C(/C(=O)Nc2ccc([S@@+]([O-])Cc4cncn4CCC)cc2)CCCN3CC(C)C)cc1 [CVC, (S)-8-[4-(2-Butoxyethoxy)phenyl]-1-isobutyl-N-(4-{[(1-propyl-1H-imidazol-5-yl)methyl]sulfinyl}phenyl)-1,2,3,4-tetrahydro-1-benzazocine-5-carboxamide]
Fasting laboratory abnormality, worst Grade 1, n subjects [1]: 6
Fasting laboratory abnormality, worst Grade 2, n subjects [1]: 6
Fasting laboratory abnormality, worst Grade 3, n subjects [1]: 0
Fasting laboratory abnormality, worst Grade 4, n subjects [1]: 0
Fasting total cholesterol abnormality, any grade, n subjects [1]: 5
Fasting total cholesterol, worst Grade 1, n subjects [1]: 2
Fasting total cholesterol, worst Grade 2, n subjects [1]: 3
Fasting total cholesterol, worst Grade 3, n subjects [1]: 0
Fasting total cholesterol, worst Grade 4, n subjects [1]: 0
Fasting triglycerides abnormality, any grade, n subjects [1]: 1
Fasting triglycerides, worst Grade 1, n subjects [1]: 0
Fasting triglycerides, worst Grade 2, n subjects [1]: 1
Fasting triglycerides, worst Grade 3, n subjects [1]: 0
Fasting triglycerides, worst Grade 4, n subjects [1]: 0
Fasting HDL, mean change from baseline (Week 4, All CVC, EFV): -2.92 mg/dL
Fasting LDL, mean change from baseline (Week 4, All CVC, EFV): -9.72 mg/dL
Fasting total cholesterol, mean change from baseline (Week 4, All CVC, EFV): -14 mg/dL
Fasting triglycerides, mean change from baseline (Week 4, All CVC, EFV): -5 mg/dL
HOMA-IR, mean change from baseline (Week 4, All CVC, EFV): −0.30
HbA1c, mean change from baseline (Week 4, All CVC, EFV): −0.03 % Hb
Fasting HDL, mean change from baseline (Week 4, CVC 100 mg): -3.98 mg/dL
Fasting LDL, mean change from baseline (Week 4, CVC 100 mg): -10.90 mg/dL
Fasting total cholesterol, mean change from baseline (Week 4, CVC 100 mg): -16 mg/dL
Fasting triglycerides, mean change from baseline (Week 4, CVC 100 mg): -8 mg/dL
HOMA-IR, mean change from baseline (Week 4, CVC 100 mg): 0.11
HbA1c, mean change from baseline (Week 4, CVC 100 mg): 0.01 % Hb
Fasting HDL, mean change from baseline (Week 4, CVC 200 mg): -1.84 mg/dL
Fasting LDL, mean change from baseline (Week 4, CVC 200 mg): -8.46 mg/dL
Fasting total cholesterol, mean change from baseline (Week 4, CVC 200 mg): -12 mg/dL
Fasting triglycerides, mean change from baseline (Week 4, CVC 200 mg): -2 mg/dL
HOMA-IR, mean change from baseline (Week 4, CVC 200 mg): −0.71
HbA1c, mean change from baseline (Week 4, CVC 200 mg): −0.08 % Hb
Fasting HDL, mean change from baseline (Week 12, All CVC, EFV): -2.09 mg/dL
Fasting LDL, mean change from baseline (Week 12, All CVC, EFV): -11.44 mg/dL
Fasting total cholesterol, mean change from baseline (Week 12, All CVC, EFV): -17 mg/dL
Fasting triglycerides, mean change from baseline (Week 12, All CVC, EFV): -15 mg/dL
HOMA-IR, mean change from baseline (Week 12, All CVC, EFV): −0.56
HbA1c, mean change from baseline (Week 12, All CVC, EFV): −0.06 % Hb
Fasting HDL, mean change from baseline (Week 12, CVC 100 mg): -2.96 mg/dL
Fasting LDL, mean change from baseline (Week 12, CVC 100 mg): -11.20 mg/dL
Fasting total cholesterol, mean change from baseline (Week 12, CVC 100 mg): -17 mg/dL
Fasting triglycerides, mean change from baseline (Week 12, CVC 100 mg): -16 mg/dL
HOMA-IR, mean change from baseline (Week 12, CVC 100 mg): −0.59
HbA1c, mean change from baseline (Week 12, CVC 100 mg): −0.04 % Hb
Fasting HDL, mean change from baseline (Week 12, CVC 200 mg): -1.22 mg/dL
Fasting LDL, mean change from baseline (Week 12, CVC 200 mg): -11.69 mg/dL
Fasting total cholesterol, mean change from baseline (Week 12, CVC 200 mg): -16 mg/dL
Fasting triglycerides, mean change from baseline (Week 12, CVC 200 mg): -13 mg/dL
HOMA-IR, mean change from baseline (Week 12, CVC 200 mg): −0.53
HbA1c, mean change from baseline (Week 12, CVC 200 mg): −0.08 % Hb
Fasting HDL, mean change from baseline (Week 24, All CVC, EFV): -1.45 mg/dL
Fasting LDL, mean change from baseline (Week 24, All CVC, EFV): -8.64 mg/dL
Fasting total cholesterol, mean change from baseline (Week 24, All CVC, EFV): -13 mg/dL
Fasting triglycerides, mean change from baseline (Week 24, All CVC, EFV): -15 mg/dL
HOMA-IR, mean change from baseline (Week 24, All CVC, EFV): −0.68
HbA1c, mean change from baseline (Week 24, All CVC, EFV): 0.06 % Hb
Fasting HDL, mean change from baseline (Week 24, CVC 100 mg): -2.15 mg/dL
Fasting LDL, mean change from baseline (Week 24, CVC 100 mg): -10.21 mg/dL
Fasting total cholesterol, mean change from baseline (Week 24, CVC 100 mg): -14 mg/dL
Fasting triglycerides, mean change from baseline (Week 24, CVC 100 mg): -8 mg/dL
HOMA-IR, mean change from baseline (Week 24, CVC 100 mg): −1.42
HbA1c, mean change from baseline (Week 24, CVC 100 mg): 0.06 % Hb
Fasting HDL, mean change from baseline (Week 24, CVC 200 mg): -0.71 mg/dL
Fasting LDL, mean change from baseline (Week 24, CVC 200 mg): -6.93 mg/dL
Fasting total cholesterol, mean change from baseline (Week 24, CVC 200 mg): -12 mg/dL
Fasting triglycerides, mean change from baseline (Week 24, CVC 200 mg): -23 mg/dL
HOMA-IR, mean change from baseline (Week 24, CVC 200 mg): 0.15
HbA1c, mean change from baseline (Week 24, CVC 200 mg): 0.06 % Hb
Fasting HDL, mean change from baseline (Week 48, All CVC, EFV): -0.96 mg/dL
Fasting LDL, mean change from baseline (Week 48, All CVC, EFV): -8.49 mg/dL
Fasting total cholesterol, mean change from baseline (Week 48, All CVC, EFV): -12 mg/dL
Fasting triglycerides, mean change from baseline (Week 48, All CVC, EFV): -12 mg/dL
HOMA-IR, mean change from baseline (Week 48, All CVC, EFV): −0.76
HbA1c, mean change from baseline (Week 48, All CVC, EFV): 0.10 % Hb
Fasting HDL, mean change from baseline (Week 48, CVC 100 mg): -1.63 mg/dL
Fasting LDL, mean change from baseline (Week 48, CVC 100 mg): -11.16 mg/dL
Fasting total cholesterol, mean change from baseline (Week 48, CVC 100 mg): -14 mg/dL
Fasting triglycerides, mean change from baseline (Week 48, CVC 100 mg): -9 mg/dL
HOMA-IR, mean change from baseline (Week 48, CVC 100 mg): −1.56
HbA1c, mean change from baseline (Week 48, CVC 100 mg): 0.09 % Hb
Fasting HDL, mean change from baseline (Week 48, CVC 200 mg): -0.21 mg/dL
Fasting LDL, mean change from baseline (Week 48, CVC 200 mg): -5.20 mg/dL
Fasting total cholesterol, mean change from baseline (Week 48, CVC 200 mg): -9 mg/dL
Fasting triglycerides, mean change from baseline (Week 48, CVC 200 mg): -16 mg/dL
HOMA-IR, mean change from baseline (Week 48, CVC 200 mg): 0.17
HbA1c, mean change from baseline (Week 48, CVC 200 mg): 0.10 % Hb
Change in fasting cholesterol (total, LDL, HDL) during treatment (through Week 48): A decrease was observed
